Here are results for one molecule from patent US11229618B2 (Amarin Pharmaceuticals Ireland Limited, priority 2012, dated 2022).

Data set [1] can be described thus: Phase 1 multidose pharmacokinetic study: safety and tolerability. The conditions noted are these: all groups. It is filed as in vivo, human. From the text: The safety population was defined as all randomized subjects who received at least one dose of study drug. The per-protocol population was defined as all safety population subjects who completed the 28-day treatment period without any major protocol deviations, and who provided blood samples for EPA analyses.
Safety assessments consisted of adverse event (AE) monitoring, clinical laboratory measurements (chemistry, hematology, and urinalysis) 12-lead electrocardiographic measurements, vital signs (systolic and diastolic blood pressure, heart rate, respiratory rate, and oral body temperature) and physical examination findings.

A further data set has as its system fasting TG levels. Nature of the data set: ANCHOR: fasting TG lowering and LDL-C. It is filed as in vivo, human. The following applies: for median percent reductions in TG from baseline, 4 g/day compared with 2 g/day: 12 weeks. The procedure: A multi-center, placebo-controlled, randomized, double-blind, 12-week study was performed to evaluate the efficacy and safety of >96% E-EPA in patients with fasting triglyceride levels≥200 mg/dl and <500 mg/dl despite statin therapy (the mean of two qualifying entry values needed to be ≥185 mg/dl and at least one of the values needed to be ≥200 mg/dl). The primary objective of the study was to determine the efficacy of >96% E-EPA 2 g daily and 4 g daily, compared to placebo, in lowering fasting TG levels in patients with high risk for cardiovascular disease and with fasting TG levels≥200 mg/dL and <500 mg/dL, despite treatment to LDL-C goal on statin therapy.
The primary efficacy variable for the double-blind treatment period was percent change in TG from baseline to Week 12 endpoint. The secondary efficacy variables for the double-blind treatment period included the following: • Percent changes in total cholesterol (TC), high-density lipoprotein cholesterol (HDL-C), LDL-C, calculated non-HDL-C, and very low-density lipoprotein cholesterol (VLDL-C) from baseline to Week 12 endpoint; • Percent change in very low-density lipoprotein TG from baseline to Week 12; • Percent changes in apolipoprotein A-I (apo A-I), apolipoprotein B (apo B), and apo A-I/apo B ratio from baseline to Week 12; • Percent changes in lipoprotein(a) from baseline to Week 12; • Percent changes in LDL particle number and size, measured by nuclear magnetic resonance, from baseline to Week 12; • Percent change in remnant-like particle cholesterol from baseline to Week 12; • Percent change in oxidized LDL from baseline to Week 12; • Changes in FPG and HbA1c from baseline to Week 12; • Change in insulin resistance, as assessed by the homeostasis model index insulin resistance, from baseline to Week 12; • Percent change in lipoprotein associated phospholipase A2 (Lp-PLA2) from baseline to Week 12; • Change in intracellular adhesion molecule-1 from baseline to Week 12; • Change in interleukin-2 from baseline to Week 12; • Change in plasminogen activator inhibitor-1 from baseline to Week 12. Note: this parameter will only be collected at sites with proper storage conditions; • Change in hsCRP from baseline to Week 12; and • Change in plasma concentration and red blood cell membrane content of fatty acid from baseline to Week 12 including EPA, docosapentaenoic acid (DPA), docosahexaenoic acid (DHA), arachidonic acid (AA), dihomo-γ-linolenic acid (DGLA), the ratio of EPA/AA, ratio of oleic acid/stearic acid (OA/SA), and the ratio of total omega-3 acids over total omega-6 acids.
The primary efficacy analysis was performed using a 2-way analysis of covariance (ANCOVA) model with treatment as a factor and baseline TG value as a covariate. […]

Regarding `CC/C=C\C/C=C\C/C=C\C/C=C\C/C=C\CCCC(=O)OCC` [IPE, all-cis eicosa-5,8,11,14,17-pentaenoic acid ethyl ester], in data set [1], the “changes in laboratory, electrocardiographic, or physical examination findings” value is listed as “no clinically meaningful changes” and the “intensity of adverse events” value is “mild or moderate in intensity”. In the data set on fasting TG levels, the “effect on LDL-C” value is recorded as “without raising LDL-C” and the “median percent reductions in TG from baseline, 4 g/day compared with 2 g/day” value is on record as “higher with IPE 4 g/day than with 2 g/day”. The “median percent reductions in TG from baseline, 4 g/day compared with 2 g/day” value with fasting TG levels (listed as EPA) is reported as “higher for subjects administered about 4 grams of EPA per day”. Further, the “effect on TG levels” value in the data set with fasting TG levels (patients with high TG levels on statin therapy) was “significantly reduced TG levels”.
